{"source": "patent US20080026067A1", "about": "“Method for Increasing Specific Surface Area of Slightly Soluble Drug” (priority 2004, published 2008)", "type_in_all_cases": "physicochemical", "key": {"[1]": {"assay": "Specific surface area of the powder, multipoint BET method", "procedure": "A specific surface area of a powder of the compound A obtained by the above-described methods and the following Examples can be measured by known method, for example, multipoint BET method.\nA specific surface area of the compound A was adjusted to give the crystalline powders with different specific surface area by the following method. As well, the measurement of specific surface area was performed by multipoint BET method."}, "[2]": {"assay": "Accelerated test (storage stability: purity by HPLC, degree of moisture by Karl Fisher)", "settings": "for Degree of moisture (%) / Purity (%): crushing composition", "procedure": "1 g of the powder of compound A was poured into the two-lay plastic bag and closed firmly with banding band. This was poured into miniature fiber dram and then this was preserved in the stability tester under the condition for 6 months, at 40° C., at 75% relative humidity. And then, the purity (quantitative value) and the degree of moisture (%) of the powder of compound A were measured. The measurement of the degree of moisture was performed by known method: the moisture vaporization method/Karl Fisher electrometrical titration method. The measurement of purity was performed by high performance liquid chromatography (HPLC).\nAbout 0.04 mg/mL N,N-dimethylformamide/acetontirile (3/7) solution of reference material and measurement sample of compound A was prepared. In this case, the concentration of the solutions was precisely found. These solutions was set under the below test condition and the purity of measurement sample was calculated from the obtained area value of the peak.\n• The detector: ultraviolet absorptiometer (measurement wavelength: 278 nm), • The column: YMC-Pack ODS-A-302 (inside diameter 4.6 mm, length 15 cm), • The mobile phase: acetonitrile/5 mmol/L sodium acetate buffer (It was prepared to pH 4.5 using acetate.)/2-propanol mixture (5/4/1), • The flow: The retention time of the compound A was prepared to be about 12 minutes (about 1.0 mL/min), • The column temperature: the constant temperature in the vicinity of 40° C. • The injection volume: 20 μL."}, "[3]": {"assay": "Dissolution test (Japanese Pharmacopoeia method 2, Paddle method)", "settings": "pH 6.8 McIlvaine buffer, 2.0% (w/v) sodium lauryl sulfate, 900 mL, 37°C, 50 rpm, 30 mg", "procedure": "In the present invention, the dissolution rate in the dissolution test, according to dissolution test method 2 (Paddle method) of general test in the Japanese Pharmacopoeia, is the value that the method is performed on condition that 50 rounds per minute in pH6.8 McIlvaine buffer solution including 2.0% (w/v) sodium lauryl sulfate. More detail, it includes the method described in the following method or the method pursuant thereof and so on.\nThe powder of compound A prepared in the above described Preparation Example 4 (specific surface area=12.51 m^2/g) and Preparation Example 6 (specific surface area=5.46 m^2/g) was sieved by 60 mesh sieve (250 μm) respectively and the sieved material was weighed out 30 mg and then poured into the test solution. The dissolution test was performed under the below described condition of the dissolution test. However, the compound A was suspended with about 2 mL test solution and then the compound A poured into the test solution. The eluate 10 mL obtained at each sampling time was filtrated with membrane filter having 0.45 μm pore diameter. The first filtrate 2 mL was removed and the rest of filtrate was as the solution of test material. The compound A prepared in Preparation Example 12 was precisely weighed out about 33.3 mg and it was dissolved by adding methanol to adjust 100 mL. Among this solution, 5 mL was weighed out and it was added by test solution to adjust 50 mL. It was made as the standard solution (0.0333 mg/mL) that […] of the compound A was dissolved. The absorbance of the solution of test material and standard solution in wavelength 278 nm was measured by the measurement of ultraviolet visible absorbance respectively and according to the below formula, the dissolution rate was found.\nThe Dissolution Test Condition:\n• Apparatus: The Japanese Pharmacopoeia, general test, dissolution test method 2 (Paddle method), • Test solution; McIlvaine buffer solution containing of 2.0% (w/v) sodium lauryl sulfate, pH 6.8 • Test solution volume: 900 mL • Temperature: 37±0.5° C. • Rotation speed: 50 rotations per minute • Sampling volume of eluate: 10 mL • Sampling time: 5, 10, 15, 30, 45, 60 and 90 minutes. [formula] [formula] • W: The volume of compound A containing of standard solution (33.3 mg) • t: The number of sampling • C: The volume of compound A poured into the test solution (30 mg) • Ct: The concentration of compound A in the solution of test material at t times sampling • ΣCn: The sum of the concentration of compound A in the solution of test material from n=1 to t−1 • At: The absorbance of the solution of test material • As: The average of absorbance of the […] of repeated measurement at three times • V: The volume of the test solution (900 mL) • v: The sampling volume of the eluate (10 mL)"}, "[4]": {"assay": "Measurement of bulk density", "procedure": "A bulk density of a powder of the compound A is preferably in the range of about 0.05 to about 0.3 g/cm^3, and more preferably in the range of about 0.05 to about 0.2 g/cm^3. A bulk density can be measured by known method. It includes, for example, the method that about 3 g sample is precisely weighed, it is put into dried 50 mL graduated cylinder (scale: by 0.1 mL) without consolidation, it reads to minimum unit of scale and value that the weight (g) of particulate is divided by the volume (cm^3) of particulate is assumed bulk density (g/cm^3), and method described in the following Examples and so on.\nAbout 3 g of compound A is precisely weighed, it is put into dried 50 mL graduated cylinder (scale: by 0.1 mL) without consolidation, it reads to minimum unit of scale. The value that the weight (g) of particulate is divided by the volume (cm^3) of particulate is assumed bulk density (g/cm^3). As a result, the bulk density of the powder of compound A prepared in Adjustment Example 4(3) was 0.18 g/cm^3 (non-crushing composition) and […] (crushing composition). The bulk density of compound A prepared in Adjustment Example 4(4) was 0.18 g/cm^3 (non-crushing composition) and 0.08 g/cm^3 (crushing composition)."}, "[5]": {"assay": "Measurement of tap density", "settings": "tapped 3 minutes at 60 times/minute", "procedure": "A tap density of a powder of the compound A is preferably in the range of about 0.1 to about 0.4 g/cm^3, and more preferably in the range of about 0.1 to about 0.3 g/cm^3. A tap density can be measured by known method. It includes, for example, the method that about 3 g sample is precisely weighed, it is put into dried 50 mL graduated cylinder (scale: by 0.1 mL) without consolidation, the graduated cylinder is set on tapping machine for tap density, then it is tapped for 3 minutes at 60 times/minute, final tap density is found, and value that the weight (g) of particulate is divided by final tap density (cm^3) of particulate is assumed tap density (g/cm^3), and method described in the following Examples and so on.\nAbout 3 g of the powder of compound A is precisely weighed, it is put into dried 50 mL graduated cylinder (scale: by 0.1 mL) without consolidation, the graduated cylinder is set on tapping machine for tap density, then it is tapped for 3 minutes at 60 times/minute, final tap density is found. The value that the weight (g) of particulate is divided by final bulk density (cm^3) of particulate is assumed tap density (g/cm^3). As a result, the tap density of the powder of compound A prepared in Adjustment Example 4(3) was 0.28 g/cm^3 (non-crushing composition) and 0.13 g/cm^3 (crushing composition). The tap density of tie powder of compound A prepared in Adjustment Example 4(4) was 0.23 g/cm^3 (non-crushing composition) and 0.16 g/cm^3 (crushing composition).["}, "[6]": {"settings": "crushing composition (jet mill crushed)"}, "[7]": {"settings": "6 months at 40°C, 75% relative humidity"}, "[8]": {"settings": "over 6 months at 40°C, 75% relative humidity"}}, "data": [{"molecule": "Cc1ccc(-c2nc(CCOc3cccc4c3CCC=C4CCC(=O)O)c(C)o2)cc1", "note": "[Adjustment Example 4(1), 3-(5-{2-[5-methyl-2-(4-methylphenyl)-1,3-oxazol-4-yl]ethoxy}-3,4-dihydronaphthalen-1-yl)propanoic acid]", "values": [{"measurement": "specific surface area", "setting": "[1]; powder as obtained", "value": 6.7, "unit": "m^2/g"}]}, {"molecule": "Cc1ccc(-c2nc(CCOc3cccc4c3CCC=C4CCC(=O)O)c(C)o2)cc1", "note": "[Adjustment Example 3, 3-(5-{2-[5-methyl-2-(4-methylphenyl)-1,3-oxazol-4-yl]ethoxy}-3,4-dihydronaphthalen-1-yl)propanoic acid]", "values": [{"measurement": "specific surface area", "setting": "[1]; [6]", "value": 20.6, "unit": "m^2/g"}, {"measurement": "specific surface area", "setting": "[1]; non-crushing composition", "value": 19.6, "unit": "m^2/g"}, {"measurement": "Degree of moisture (%)", "setting": "[2]; 0 month", "value": 0.3, "unit": "%"}, {"measurement": "Purity (%)", "setting": "[2]; 0 month", "value": 95.4, "unit": "%"}, {"measurement": "Degree of moisture (%)", "setting": "[2]; [7]", "value": 0.6, "unit": "%"}, {"measurement": "Purity (%)", "setting": "[2]; [7]", "value": 94.4, "unit": "%"}, {"measurement": "change (increase) of degree of moisture", "setting": "[2]; [8]", "value": 0.3, "unit": "%"}, {"measurement": "decrease of purity", "setting": "[2]; [8]", "value": 1.0, "unit": "%"}]}, {"molecule": "Cc1ccc(-c2nc(CCOc3cccc4c3CCC=C4CCC(=O)O)c(C)o2)cc1", "note": "[Adjustment Example 1, 3-(5-{2-[5-methyl-2-(4-methylphenyl)-1,3-oxazol-4-yl]ethoxy}-3,4-dihydronaphthalen-1-yl)propanoic acid]", "values": [{"measurement": "specific surface area", "setting": "[1]; powder as obtained", "value": 42.24, "unit": "m^2/g"}]}, {"molecule": "Cc1ccc(-c2nc(CCOc3cccc4c3CCC=C4CCC(=O)O)c(C)o2)cc1", "note": "[Adjustment Example 4(2), 3-(5-{2-[5-methyl-2-(4-methylphenyl)-1,3-oxazol-4-yl]ethoxy}-3,4-dihydronaphthalen-1-yl)propanoic acid]", "values": [{"measurement": "specific surface area", "setting": "[1]; powder as obtained", "value": 17.8, "unit": "m^2/g"}]}, {"molecule": "Cc1ccc(-c2nc(CCOc3cccc4c3CCC=C4CCC(=O)O)c(C)o2)cc1", "note": "[Adjustment Example 4, 3-(5-{2-[5-methyl-2-(4-methylphenyl)-1,3-oxazol-4-yl]ethoxy}-3,4-dihydronaphthalen-1-yl)propanoic acid]", "values": [{"measurement": "specific surface area", "setting": "[1]; powder as obtained", "value": 12.51, "unit": "m^2/g"}, {"measurement": "Dissolution rate (%)", "setting": "[3]; 0 minutes", "value": 0.00, "unit": "%"}, {"measurement": "Dissolution rate (%)", "setting": "[3]; 5 minutes", "value": 65.46, "unit": "%"}, {"measurement": "Dissolution rate (%)", "setting": "[3]; 10 minutes", "value": 76.67, "unit": "%"}, {"measurement": "Dissolution rate (%)", "setting": "[3]; 15 minutes", "value": 82.17, "unit": "%"}, {"measurement": "Dissolution rate (%)", "setting": "[3]; 30 minutes", "value": 88.95, "unit": "%"}, {"measurement": "Dissolution rate (%)", "setting": "[3]; 45 minutes", "value": 92.15, "unit": "%"}, {"measurement": "Dissolution rate (%)", "setting": "[3]; 60 minutes", "value": 94.10, "unit": "%"}, {"measurement": "Dissolution rate (%)", "setting": "[3]; 90 minutes", "value": 96.20, "unit": "%"}]}, {"molecule": "Cc1ccc(-c2nc(CCOc3cccc4c3CCC=C4CCC(=O)O)c(C)o2)cc1", "note": "[Adjustment Example 2, 3-(5-{2-[5-methyl-2-(4-methylphenyl)-1,3-oxazol-4-yl]ethoxy}-3,4-dihydronaphthalen-1-yl)propanoic acid]", "values": [{"measurement": "specific surface area", "setting": "[1]; powder as obtained", "value": 20.43, "unit": "m^2/g"}]}, {"molecule": "Cc1ccc(-c2nc(CCOc3cccc4c3CCC=C4CCC(=O)O)c(C)o2)cc1", "note": "[Compound A, 3-(5-{2-[5-methyl-2-(4-methylphenyl)-1,3-oxazol-4-yl]ethoxy}-3,4-dihydronaphthalen-1-yl)propanoic acid]", "values": [{"measurement": "specific surface area", "setting": "[1]; powder as obtained", "value": 2.4, "unit": "m^2/g"}]}, {"molecule": "Cc1ccc(-c2nc(CCOc3cccc4c3CCC=C4CCC(=O)O)c(C)o2)cc1", "note": "[Adjustment Example 5, 3-(5-{2-[5-methyl-2-(4-methylphenyl)-1,3-oxazol-4-yl]ethoxy}-3,4-dihydronaphthalen-1-yl)propanoic acid]", "values": [{"measurement": "specific surface area", "setting": "[1]; powder as obtained", "value": 5.00, "unit": "m^2/g"}]}, {"molecule": "Cc1ccc(-c2nc(CCOc3cccc4c3CCC=C4CCC(=O)O)c(C)o2)cc1", "note": "[Adjustment Example 4(3), 3-(5-{2-[5-methyl-2-(4-methylphenyl)-1,3-oxazol-4-yl]ethoxy}-3,4-dihydronaphthalen-1-yl)propanoic acid]", "values": [{"measurement": "specific surface area", "setting": "[1]; [6]", "value": 12.7, "unit": "m^2/g"}, {"measurement": "specific surface area", "setting": "[1]; non-crushing composition", "value": 11.0, "unit": "m^2/g"}, {"measurement": "bulk density", "setting": "[4]; crushing composition", "value": 0.8, "unit": "g/mL"}, {"measurement": "bulk density", "setting": "[4]; non-crushing composition", "value": 0.18, "unit": "g/mL"}, {"measurement": "tap density", "setting": "[5]; crushing composition", "value": 0.13, "unit": "g/mL"}, {"measurement": "tap density", "setting": "[5]; non-crushing composition", "value": 0.28, "unit": "g/mL"}]}, {"molecule": "Cc1ccc(-c2nc(CCOc3cccc4c3CCC=C4CCC(=O)O)c(C)o2)cc1", "note": "[Adjustment Example 6, 3-(5-{2-[5-methyl-2-(4-methylphenyl)-1,3-oxazol-4-yl]ethoxy}-3,4-dihydronaphthalen-1-yl)propanoic acid]", "values": [{"measurement": "specific surface area", "setting": "[1]; powder as obtained", "value": 5.46, "unit": "m^2/g"}, {"measurement": "Dissolution rate (%)", "setting": "[3]; 0 minutes", "value": 0.00, "unit": "%"}, {"measurement": "Dissolution rate (%)", "setting": "[3]; 5 minutes", "value": 32.3, "unit": "%"}, {"measurement": "Dissolution rate (%)", "setting": "[3]; 10 minutes", "value": 41.7, "unit": "%"}, {"measurement": "Dissolution rate (%)", "setting": "[3]; 15 minutes", "value": 48.0, "unit": "%"}, {"measurement": "Dissolution rate (%)", "setting": "[3]; 30 minutes", "value": 58.5, "unit": "%"}, {"measurement": "Dissolution rate (%)", "setting": "[3]; 45 minutes", "value": 64.3, "unit": "%"}, {"measurement": "Dissolution rate (%)", "setting": "[3]; 60 minutes", "value": 68.0, "unit": "%"}]}]}
